Source: patent US10610522B2, “Methods for retreating irritable bowel syndrome (IBS)” (Salix Pharmaceuticals, Inc., priority 2014, dated 2020)

Tests used:
[1] = system: hepatic encephalopathy (HE), commonly-occurring infections; test: Infection rates in cirrhotic patients with HE on long-term rifaximin 550 mg BID (RCT and open-label maintenance); format: in vivo; conditions: for Any infection: rate = number of subjects/PEY; for C. difficile infection / Cellulitis / Peritonitis / Pneumonia / Urinary tract/kidney infection: human, in vivo
From the text: Cirrhosis patients can have an increased risk of infections and subsequent hospitalizations, leading to increased mortality. […] A description of the OLM and RCT can be found in WO 2011/005388, “METHODS OF TREATING HEPATIC ENCEPHALOPATHY,” which is incorporated herein by reference in its entirety. In the analysis below, the effect of long term RFX treatment on infection rates and antibiotic use was examined.
Patients with cirrhosis and ≥2 overt HE episodes within 12 months were enrolled in the RCT (RFX=140; placebo [PBO]=159); 170 new patients, in addition to 70 RFX and 82 PBO patients who rolled over from the RCT were enrolled in OLM. The “All RFX group” (n=392) consisted of RFX-treated patients in both studies. Infection rates per person exposure years (PEY) were compared across RCT and All RFX groups, and antibiotic use over time was examined.
In the 6 month RCT, RFX exposure was 50 PEY vs 46 PEY in the PBO group. Long term RFX exposure was for median=427 (2-1427) days, or 510 PEY. […] Overall, use of antibiotics (oral and intravenous) remained the same or declined with time.

IBS-D = test: TARGET 3: repeat treatment with rifaximin 550 mg TID in IBS-D (open-label, double-blind first and second repeat treatment); format: in vivo, human
From the text: This study consists of several treatment phases, and is initiated with a placebo run-in treatment during the Screening/Treatment 1 Phase. The placebo run-in is included in the design to disqualify subjects from enrollment if they no longer meet IBS symptom related entry criteria at the end of the Screening/Treatment 1 Phase (e.g., spontaneous improvement). […] Subjects who achieve treatment success in both IBS-related abdominal pain and stool consistency during at least two of the four week follow-up period are classified as responders and enter a treatment free Maintenance Phase 1. Non-responders are withdrawn from the study to provide an enriched population of subjects who respond to treatment with rifaximin. The treatment free Maintenance Phase 1 is variable in time (up to 18 weeks in total) and depends upon recurrence (e.g., absence of treatment success in both IBS related abdominal pain or stool consistency).
The subjects remain blinded to placebo received during Treatment 1. Subjects with recurrence enter the DBR Treatment 3 Phase.
Subjects are considered to have met recurrence criteria or have “relapsed” when they experience the recurrence of abdominal pain OR stool consistency for at least 3 weeks during a 4-week follow-up period. […] Therefore a recurrence of both symptoms is not required to define a “relapse”.
The study was a multi-center, randomized, double-blind, placebo-controlled trial in adult subjects with non-C IBS. The study duration was up to 51 weeks, with approximately 600 patients.
The Treatment 1 or Screening phase is the 7-13 days prior to study Day 1.
The proportion of subjects who were responders to repeat treatment in both IBS-related abdominal pain and stool consistency were evaluated during the 4 week treatment-free follow-up (Primary Evaluation Period, PEP) in the DBR (Double Blind Repeat) of the Treatment 3 Phase.
In this analysis, when a weekly response was absent for either the abdominal pain or stool consistency component for at least 3 weeks during a rolling consecutive 4-week assessment period; the subject is considered to have recurrence.
Further, the proportion of subjects who were responders to repeat treatment in both IBS-related abdominal pain and stool consistency during the PEP in the DBR Treatment 3 Phase and that had no recurrence through the end of Maintenance Phase 2 were assessed.
Further, the proportion of subjects were assessed who were responders to repeat treatment for IBS-related bloating during the PEP in the DBR Treatment 3 Phase.
The intent-to-treat (ITT) population included subjects who were randomized and received at least one dose of the study drug in the Treatment 3/DBR Treatment Phase. These subjects served as the primary analysis population. An efficacy analysis was conducted on the ITT population.
Double-Blind Phase of the Study (Response type—durable and maintained): Proportion that responded to the composite FDA Endpoint of relief in both IBS-related Abdominal Pain AND Stool Consistency during the PEP in the first repeat double-blind, placebo controlled treatment phase AND continued to respond without recurrence through the end of Week 6 following the second repeat double-blind, placebo controlled treatment.
Double-Blind Repeat Treatment and follow-up (Response type—durable): Proportion that responded to the composite FDA Endpoint of relief in both IBS-related Abdominal Pain AND Stool Consistency during the PEP in the first repeat double-blind, placebo controlled treatment phase AND continued to respond without recurrence through the end of Week 12, independent of any additional treatment.
At the end of Week 6, patients were assessed for response to treatment. […]

[2] = TARGET 3, month following repeat treatment, Worst-Case Analysis, 550 mg TID, N = 328

Compound: CO[C@H]1/C=C/O[C@@]2(C)Oc3c(C)c(O)c4c(O)c(c5c(nc6cc(C)ccn65)c4c3C2=O)NC(=O)/C(C)=C\C=C\[C@H](C)[C@H](O)[C@@H](C)[C@@H](O)[C@@H](C)[C@H](OC(C)=O)[C@@H]1C [Rifaximin, (2S,16Z,18E,20S,21S,22R,23R,24R,25S,26S,27S,28E)-5,6,21,23,25 Pentahydroxy-27-methoxy-2,4,11,16,20,22,24,26-octamethyl-2,7-(epoxypentadeca-(1,11,13)trienimino) benzofuro (4,5-e) pyrido(1,2-a) benzimidazole-1,15(2H)-dione,25-acetate]
- Any infection ([1]; All RFX patients (n = 392), PEY = 510): 214 (0.072) N (rate*)
- Any infection ([1]; RCT RFX 550 mg BID (n = 140), PEY = 50): 46 (0.112) N (rate*)
- C. difficile infection [1]: 6 (0.012) N (rate*)
- Cellulitis [1]: 34 (0.071) N (rate*)
- Peritonitis [1]: 22 (0.044) N (rate*)
- Pneumonia [1]: 42 (0.084) N (rate*)
- Urinary tract/kidney infection [1]: 83 (0.193) N (rate*)
- C. difficile infection ([1]; 6 months): 2 (0.040) N (rate*)
- Cellulitis ([1]; 6 months): 3 (0.006) N (rate*)
- Peritonitis ([1]; 6 months): 3 (0.060) N (rate*)
- Pneumonia ([1]; 6 months): 4 (0.080) N (rate*)
- Urinary tract/kidney infection ([1]; 6 months): 9 (0.187) N (rate*)
- Median time to recurrence of IBS-related symptoms after initial 14-day treatment (IBS-D; TARGET 3): 8 weeks
- Patients who responded to initial open-label treatment (abdominal pain and/or stool consistency) (IBS-D; TARGET 3, 550 mg TID 14 d, 1074 of 2579 patients): 41.6%
- Monthly responders for abdominal pain and stool consistency after first repeat treatment (IBS-D; TARGET 3, 4 weeks following first repeat treatment, 550 mg TID): 33%
- Abdominal Pain Responders: % (IBS-D; [2]): (51) %
- Abdominal Pain Responders: n (IBS-D; [2]): 166
- Abdominal Pain and Stool Consistency Responders: % (IBS-D; [2]): (33) %
- Abdominal Pain and Stool Consistency Responders: n (IBS-D; [2]): 107
- Stool Consistency Responders: % (IBS-D; [2]): (42) %
- Stool Consistency Responders: n (IBS-D; [2]): 138
- Sustained response for abdominal pain and stool consistency (IBS-D; TARGET 3, no recurrence 10 weeks after repeat treatment): 17%
- Prevention of recurrence of abdominal pain and stool consistency responders (IBS-D; TARGET 3, no recurrence through second repeat treatment phase (20 weeks)): 13%
- Responders without recurrence of abdominal pain or stool consistency symptoms for 22 weeks following initial treatment (IBS-D; TARGET 3, number of patients): 382
- IBS-Related Abdominal Pain Responders (IBS-D; Weeks 3 through 6, Second Repeat Treatment Phase, LOCF Analysis): (52.5%)
- IBS-Related Abdominal Pain and Stool Consistency Responders (IBS-D; Weeks 3 to 6, Double Blind First Repeat Treatment Phase, LOCF Analysis, ITT): 116/328
- Adverse reaction: ALT increased (IBS-D; during repeat treatment): 2%
- Adverse reaction: nausea (IBS-D; during repeat treatment): 2%
- Adverse event rate of repeat treatments (IBS-D; repeat treatments 550 mg TID): generally below that of placebo
- Effects on pathogen emergence, pathogen susceptibility, microbial population in stool or skin swab samples (IBS-D; up to 3 treatment cycles): no evidence of significant effects
